Source: ChEMBL document CHEMBL1201862, “PubChem BioAssay data set” (2004)
One block for each molecule: values may come before it. Active and inactive are the calls of the source.

Key:
[1] = molecular target: Glyceraldehyde-3-phosphate dehydrogenase (Homo sapiens, UniProt P04406)
[2] = molecular target: T1, Bcl-2-related protein A1 (Mus musculus, UniProt Q07440); assay: small-molecule antagonists of Bfl-1/BH3 interaction – biochemical, TR-FRET, mouse Bfl-1, confirmation (AID 621);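 further: TR-FRET binding of GST-Bfl-1 to FITC-labelled Bid peptide via terbium antibody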
T1 sequence (Q07440 whole entry): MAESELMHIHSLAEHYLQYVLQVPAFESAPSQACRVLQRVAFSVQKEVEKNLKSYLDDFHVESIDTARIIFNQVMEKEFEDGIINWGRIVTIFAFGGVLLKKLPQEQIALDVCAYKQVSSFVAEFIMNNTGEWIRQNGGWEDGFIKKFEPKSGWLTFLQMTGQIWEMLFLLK

[3] = molecular target: T1, Bcl-2-related protein A1; assay: Bfl-1 binding inhibitors, SAR follow-up, biochemical, fluorescence polarization (AID 1070)
[4] = molecular target: T2, Glutathione-S-transferase (Schistosoma japonicum, UniProt Q26513); assay: GST-antibody interaction or FRET quenching – biochemical, TR-FRET, artefact control for Vif-APOBEC3G degradation inhibitor project, dose response (AID 1117362); assay type: functional
T2 sequence (Q26513 whole entry): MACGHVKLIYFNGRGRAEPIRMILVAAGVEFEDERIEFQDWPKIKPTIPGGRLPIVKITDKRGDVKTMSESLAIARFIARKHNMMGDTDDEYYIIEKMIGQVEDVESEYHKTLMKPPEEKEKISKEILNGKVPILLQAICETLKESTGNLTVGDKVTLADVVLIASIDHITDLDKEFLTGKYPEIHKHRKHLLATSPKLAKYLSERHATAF

[5] = molecular target: T3, Rac GTPase-activating protein 1 (Homo sapiens, UniProt Q9H0H5); assay: blockers of MgcRacGAP-driven Rac1 GTP hydrolysis – biochemical, ADP Hunter fluorescence, primary and confirmatory, confirmation (AID 624330); assay type: functional
T3 sequence (Q9H0H5 whole entry): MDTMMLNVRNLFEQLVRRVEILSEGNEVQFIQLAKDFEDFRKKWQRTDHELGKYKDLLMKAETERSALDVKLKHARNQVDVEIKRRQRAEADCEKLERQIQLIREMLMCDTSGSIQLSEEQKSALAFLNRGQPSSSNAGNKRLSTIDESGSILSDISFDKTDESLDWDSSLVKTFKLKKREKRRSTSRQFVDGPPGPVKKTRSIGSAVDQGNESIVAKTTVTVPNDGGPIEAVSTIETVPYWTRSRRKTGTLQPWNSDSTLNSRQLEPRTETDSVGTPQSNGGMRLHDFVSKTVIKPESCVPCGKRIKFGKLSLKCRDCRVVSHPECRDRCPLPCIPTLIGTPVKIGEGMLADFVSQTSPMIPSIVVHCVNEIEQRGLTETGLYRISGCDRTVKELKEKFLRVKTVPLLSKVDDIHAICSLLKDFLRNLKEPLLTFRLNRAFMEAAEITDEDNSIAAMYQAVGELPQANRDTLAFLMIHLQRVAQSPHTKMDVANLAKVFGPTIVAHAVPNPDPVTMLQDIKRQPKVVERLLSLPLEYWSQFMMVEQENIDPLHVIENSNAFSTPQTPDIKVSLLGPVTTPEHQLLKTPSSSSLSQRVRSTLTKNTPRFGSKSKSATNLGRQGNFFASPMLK

[6] = molecular target: NAD-dependent protein deacylase sirtuin-5, mitochondrial (Homo sapiens, UniProt Q9NXA8); assay: sirtuin-5 deacylation blockers, concentration series – biochemical, fluorescence imaging, cherry-pick, set 5, dose response (AID 720591);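 further: desuccinylation of succinyl peptide AMC substrate read as fluorescence after trypsin release; potency of inhibitors that lower fluorescence and may act on trypsin instead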
NAD-dependent protein deacylase sirtuin-5, mitochondrial, sequence (Q9NXA8 whole entry): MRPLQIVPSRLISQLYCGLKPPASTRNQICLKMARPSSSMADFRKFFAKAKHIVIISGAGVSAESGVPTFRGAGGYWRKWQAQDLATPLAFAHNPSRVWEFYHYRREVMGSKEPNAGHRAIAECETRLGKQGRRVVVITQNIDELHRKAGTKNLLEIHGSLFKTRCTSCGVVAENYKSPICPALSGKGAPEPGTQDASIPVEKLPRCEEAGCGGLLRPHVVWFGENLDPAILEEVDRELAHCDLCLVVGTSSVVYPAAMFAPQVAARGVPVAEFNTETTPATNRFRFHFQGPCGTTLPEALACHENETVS

[7] = molecular target: Large T antigen (Simian virus 40, UniProt P03070); assay type: functional, Betapolyomavirus macacae;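 further: Confirmatory-stage PubChem screen for compounds that inhibit SV40 T antigen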
Large T antigen, sequence (P03070 whole entry): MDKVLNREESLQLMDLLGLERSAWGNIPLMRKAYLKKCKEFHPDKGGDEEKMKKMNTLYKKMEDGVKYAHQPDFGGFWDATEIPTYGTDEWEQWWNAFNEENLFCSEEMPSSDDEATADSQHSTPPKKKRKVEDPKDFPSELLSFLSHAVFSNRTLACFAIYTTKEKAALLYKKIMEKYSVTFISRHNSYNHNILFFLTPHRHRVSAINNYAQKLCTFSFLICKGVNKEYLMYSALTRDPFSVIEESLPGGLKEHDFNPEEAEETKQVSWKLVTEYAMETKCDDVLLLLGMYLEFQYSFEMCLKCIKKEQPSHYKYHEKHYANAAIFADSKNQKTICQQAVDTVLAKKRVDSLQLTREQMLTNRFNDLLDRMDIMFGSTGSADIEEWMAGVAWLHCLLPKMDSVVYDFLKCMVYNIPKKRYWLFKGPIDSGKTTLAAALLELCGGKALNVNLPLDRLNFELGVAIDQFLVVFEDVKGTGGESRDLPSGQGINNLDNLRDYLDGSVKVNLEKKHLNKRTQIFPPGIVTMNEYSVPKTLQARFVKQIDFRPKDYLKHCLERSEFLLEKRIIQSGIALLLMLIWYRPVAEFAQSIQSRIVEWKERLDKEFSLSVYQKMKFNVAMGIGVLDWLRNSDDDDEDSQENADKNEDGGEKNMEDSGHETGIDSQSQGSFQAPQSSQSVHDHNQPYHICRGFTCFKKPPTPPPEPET

[8] = molecular target: Glucose-6-phosphate 1-dehydrogenase (Homo sapiens, UniProt P11413); assay: inhibition of Homo sapiens G6PD, dose series – biochemical, fluorescence, selectivity assay for P. falciparum G6PD inhibitor project, dose response (AID 504792); assay type: functional
Glucose-6-phosphate 1-dehydrogenase, sequence (P11413 whole entry): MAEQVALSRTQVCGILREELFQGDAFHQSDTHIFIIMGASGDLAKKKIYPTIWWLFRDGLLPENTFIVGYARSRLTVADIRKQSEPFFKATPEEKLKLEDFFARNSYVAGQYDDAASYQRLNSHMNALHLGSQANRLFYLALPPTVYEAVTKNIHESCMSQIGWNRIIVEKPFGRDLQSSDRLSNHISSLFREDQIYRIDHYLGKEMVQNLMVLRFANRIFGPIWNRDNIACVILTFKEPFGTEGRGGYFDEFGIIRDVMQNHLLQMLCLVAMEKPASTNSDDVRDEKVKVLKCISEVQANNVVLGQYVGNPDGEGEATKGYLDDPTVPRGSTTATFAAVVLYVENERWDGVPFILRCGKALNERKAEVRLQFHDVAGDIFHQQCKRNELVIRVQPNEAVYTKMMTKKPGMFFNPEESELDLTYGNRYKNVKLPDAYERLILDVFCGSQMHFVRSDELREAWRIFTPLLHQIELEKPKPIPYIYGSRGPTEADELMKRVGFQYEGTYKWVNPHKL

[9] = molecular target: T4, Sentrin-specific protease 6 (Homo sapiens, UniProt Q9GZR1); assay type: functional;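 further: Luminescence-based dose-response confirmatory assay of SENP6 inhibition, following up an ultra-high-throughput screen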
T4 sequence (Q9GZR1 whole entry): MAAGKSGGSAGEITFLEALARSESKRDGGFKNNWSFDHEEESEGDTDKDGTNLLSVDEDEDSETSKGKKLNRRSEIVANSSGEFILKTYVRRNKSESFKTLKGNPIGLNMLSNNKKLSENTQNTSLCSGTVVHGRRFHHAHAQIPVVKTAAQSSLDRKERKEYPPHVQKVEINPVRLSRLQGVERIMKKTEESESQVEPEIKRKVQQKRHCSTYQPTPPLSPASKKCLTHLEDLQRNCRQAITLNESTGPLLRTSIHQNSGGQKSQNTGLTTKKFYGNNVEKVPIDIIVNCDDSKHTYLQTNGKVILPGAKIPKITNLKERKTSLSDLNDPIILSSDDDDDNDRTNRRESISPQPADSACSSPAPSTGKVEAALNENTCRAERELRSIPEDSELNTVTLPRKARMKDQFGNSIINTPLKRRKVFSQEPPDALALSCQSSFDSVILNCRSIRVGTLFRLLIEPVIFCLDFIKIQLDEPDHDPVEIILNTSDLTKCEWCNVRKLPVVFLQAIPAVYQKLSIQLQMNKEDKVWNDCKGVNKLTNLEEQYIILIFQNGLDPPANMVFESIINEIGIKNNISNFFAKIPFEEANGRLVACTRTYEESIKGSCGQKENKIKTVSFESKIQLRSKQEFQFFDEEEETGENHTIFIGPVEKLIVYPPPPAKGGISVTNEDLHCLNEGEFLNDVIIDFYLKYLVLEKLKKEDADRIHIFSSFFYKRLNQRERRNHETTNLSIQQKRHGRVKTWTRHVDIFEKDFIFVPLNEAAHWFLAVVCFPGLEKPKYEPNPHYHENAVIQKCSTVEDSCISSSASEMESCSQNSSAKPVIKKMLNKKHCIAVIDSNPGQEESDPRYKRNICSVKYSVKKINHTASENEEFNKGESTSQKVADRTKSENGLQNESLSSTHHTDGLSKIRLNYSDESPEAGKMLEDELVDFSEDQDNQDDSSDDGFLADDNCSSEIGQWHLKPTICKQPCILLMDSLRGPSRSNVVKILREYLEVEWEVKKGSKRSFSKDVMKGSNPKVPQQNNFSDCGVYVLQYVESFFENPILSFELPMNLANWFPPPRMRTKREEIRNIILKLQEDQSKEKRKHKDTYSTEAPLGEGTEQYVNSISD

[10] = molecular target: T5, Sentrin-specific protease 7 (Homo sapiens, UniProt Q9BQF6); assay type: functional;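 further: Luminescence-based dose-response confirmation of ultra-high-throughput screening hits, measuring inhibition of SENP7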
T5 sequence (Q9BQF6 whole entry): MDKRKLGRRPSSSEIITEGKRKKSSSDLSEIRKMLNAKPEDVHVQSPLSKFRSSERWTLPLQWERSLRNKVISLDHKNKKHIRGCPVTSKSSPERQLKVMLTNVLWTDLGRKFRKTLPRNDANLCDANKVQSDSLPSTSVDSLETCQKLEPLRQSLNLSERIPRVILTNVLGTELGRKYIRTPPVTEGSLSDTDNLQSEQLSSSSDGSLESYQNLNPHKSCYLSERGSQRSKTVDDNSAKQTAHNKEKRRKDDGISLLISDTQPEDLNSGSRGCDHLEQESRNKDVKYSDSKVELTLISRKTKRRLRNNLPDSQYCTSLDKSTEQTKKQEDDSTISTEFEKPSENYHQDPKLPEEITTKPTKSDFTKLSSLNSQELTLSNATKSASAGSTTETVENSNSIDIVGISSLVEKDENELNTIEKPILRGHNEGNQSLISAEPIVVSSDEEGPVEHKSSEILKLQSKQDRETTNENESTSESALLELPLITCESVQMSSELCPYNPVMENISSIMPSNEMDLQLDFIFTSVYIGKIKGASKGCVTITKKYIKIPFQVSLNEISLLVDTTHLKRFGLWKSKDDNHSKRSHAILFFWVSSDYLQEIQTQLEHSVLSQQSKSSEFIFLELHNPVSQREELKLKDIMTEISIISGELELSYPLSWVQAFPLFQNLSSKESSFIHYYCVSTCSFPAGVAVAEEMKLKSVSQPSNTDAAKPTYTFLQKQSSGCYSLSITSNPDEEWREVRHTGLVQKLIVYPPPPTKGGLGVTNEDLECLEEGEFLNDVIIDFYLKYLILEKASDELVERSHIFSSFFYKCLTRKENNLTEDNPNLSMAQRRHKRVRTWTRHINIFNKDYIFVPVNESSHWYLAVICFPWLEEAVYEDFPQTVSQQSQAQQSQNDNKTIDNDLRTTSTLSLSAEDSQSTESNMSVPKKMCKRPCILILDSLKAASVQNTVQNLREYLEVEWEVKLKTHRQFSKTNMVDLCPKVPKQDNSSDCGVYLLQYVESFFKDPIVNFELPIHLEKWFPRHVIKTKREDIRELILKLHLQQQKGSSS

[11] = molecular target: T6, Sentrin-specific protease 8 (Homo sapiens, UniProt Q96LD8); assay type: functional;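 further: luminescence read-out of SENP8 inhibition, dose-response confirmation following an ultra-high-throughput screen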
T6 sequence (Q96LD8 whole entry): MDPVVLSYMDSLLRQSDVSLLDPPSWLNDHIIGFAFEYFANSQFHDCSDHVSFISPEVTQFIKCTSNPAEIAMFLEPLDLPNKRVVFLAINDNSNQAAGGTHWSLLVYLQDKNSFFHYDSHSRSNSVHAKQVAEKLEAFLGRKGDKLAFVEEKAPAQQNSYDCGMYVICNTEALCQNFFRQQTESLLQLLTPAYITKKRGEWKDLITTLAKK

[12] = molecular target: T7, Caspase-3 (Homo sapiens, UniProt P42574); assay type: functional;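 further: Dose-response selectivity test against caspase-3 for candidate inhibitors of sentrin-specific proteases (SENPs)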
T7 sequence (P42574 whole entry): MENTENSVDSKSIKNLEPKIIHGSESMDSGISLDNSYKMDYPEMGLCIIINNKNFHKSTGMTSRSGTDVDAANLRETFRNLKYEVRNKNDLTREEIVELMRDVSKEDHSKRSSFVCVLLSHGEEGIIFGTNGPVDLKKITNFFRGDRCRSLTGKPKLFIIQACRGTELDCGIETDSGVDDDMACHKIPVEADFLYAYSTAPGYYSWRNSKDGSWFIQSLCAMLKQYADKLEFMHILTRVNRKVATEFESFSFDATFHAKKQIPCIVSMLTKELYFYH

[13] = molecular target: Mitogen-activated protein kinase 10 (Homo sapiens, UniProt P53779); assay: Dose response biochemical screening assay for inhibitors of c-Jun N-Terminal Kinase 3 (JNK3). [Related pubchem assays: 746 ]
Mitogen-activated protein kinase 10, sequence (P53779 whole entry): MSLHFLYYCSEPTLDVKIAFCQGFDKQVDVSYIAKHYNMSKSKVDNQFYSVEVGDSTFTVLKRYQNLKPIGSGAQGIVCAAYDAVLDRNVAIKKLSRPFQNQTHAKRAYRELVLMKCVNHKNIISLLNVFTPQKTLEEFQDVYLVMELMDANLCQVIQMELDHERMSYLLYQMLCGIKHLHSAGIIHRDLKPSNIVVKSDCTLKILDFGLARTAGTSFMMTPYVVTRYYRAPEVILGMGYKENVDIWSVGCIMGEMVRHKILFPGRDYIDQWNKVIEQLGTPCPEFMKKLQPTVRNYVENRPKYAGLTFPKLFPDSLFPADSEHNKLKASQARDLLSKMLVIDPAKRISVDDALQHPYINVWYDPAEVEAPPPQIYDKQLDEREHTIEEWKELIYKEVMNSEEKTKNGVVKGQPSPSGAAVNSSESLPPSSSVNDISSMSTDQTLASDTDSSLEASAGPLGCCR

[14] = molecular target: T8, Caspase-6 (Homo sapiens, UniProt P55212); assay: inhibition of CASP6 peptide cleavage – biochemical, VEID-R110 fluorescence, cherry-pick, dose response (AID 720632)
T8 sequence (P55212 whole entry): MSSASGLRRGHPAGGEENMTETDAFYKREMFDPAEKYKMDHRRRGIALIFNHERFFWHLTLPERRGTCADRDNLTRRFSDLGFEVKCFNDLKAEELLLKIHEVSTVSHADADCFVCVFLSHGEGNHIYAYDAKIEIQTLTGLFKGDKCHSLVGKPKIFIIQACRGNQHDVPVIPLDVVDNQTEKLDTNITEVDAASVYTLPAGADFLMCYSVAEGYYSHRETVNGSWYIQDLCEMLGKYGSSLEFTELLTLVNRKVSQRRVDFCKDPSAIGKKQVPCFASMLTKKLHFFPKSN

[15] = test system: HEK293; assay: EBV LMP1 TES2 canonical NF-kB signalling blockers – cell-based, HEK293, luciferase, cherry-pick, dose response (AID 588343); assay type: functional; settings: Homo sapiens
[16] = molecular target: E3 ubiquitin-protein ligase Mdm2 (Homo sapiens, UniProt Q00987); assay: MDM2-luc reporter signal enhancers, multi-concentration potency testing, MDM2 ubiquitin-protein ligase inhibitor program, whole-cell format, luminescence detection, 384-well microplate (AID 1394); assay type: functional;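 further: MDM2 E3 inhibitors raise luminescence so EC50 is for signal enhancement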
E3 ubiquitin-protein ligase Mdm2, sequence (Q00987 whole entry): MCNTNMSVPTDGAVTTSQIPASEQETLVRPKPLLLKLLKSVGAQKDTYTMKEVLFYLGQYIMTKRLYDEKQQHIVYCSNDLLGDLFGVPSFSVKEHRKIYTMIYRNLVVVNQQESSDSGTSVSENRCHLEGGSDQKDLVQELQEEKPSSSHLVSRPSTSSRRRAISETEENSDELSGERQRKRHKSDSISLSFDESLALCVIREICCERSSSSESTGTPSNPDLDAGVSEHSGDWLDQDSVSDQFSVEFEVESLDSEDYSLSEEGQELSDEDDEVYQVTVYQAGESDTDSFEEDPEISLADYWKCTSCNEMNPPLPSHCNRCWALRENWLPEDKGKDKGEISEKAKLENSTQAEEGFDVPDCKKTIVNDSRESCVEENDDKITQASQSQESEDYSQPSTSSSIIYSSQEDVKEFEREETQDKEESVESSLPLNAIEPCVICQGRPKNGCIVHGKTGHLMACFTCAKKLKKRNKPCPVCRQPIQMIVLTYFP

Glyceraldehyde-3-phosphate dehydrogenase, sequence (P04406 whole entry): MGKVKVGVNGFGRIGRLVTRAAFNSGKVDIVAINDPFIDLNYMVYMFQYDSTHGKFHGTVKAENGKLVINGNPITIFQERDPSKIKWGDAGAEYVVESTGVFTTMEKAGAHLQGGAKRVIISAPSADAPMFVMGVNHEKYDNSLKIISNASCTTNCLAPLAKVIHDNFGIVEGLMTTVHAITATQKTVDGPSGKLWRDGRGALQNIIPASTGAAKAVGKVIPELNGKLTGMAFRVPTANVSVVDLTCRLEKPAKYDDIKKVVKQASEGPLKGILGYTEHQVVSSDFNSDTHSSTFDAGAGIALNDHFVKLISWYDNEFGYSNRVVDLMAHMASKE

IC50 [1]: > 100 µM (not active) | IC50 [2]: 0.97 µM (active) | IC50 [3]: 1.67 µM (active)
SMILES: CCN1CCN(C2=C(Cl)C(=O)N(c3ccc(Cl)c(Cl)c3)C2=O)CC1

IC50 [1]: > 100 µM (not active) | IC50 [2]: > 100 µM (not active) | IC50 [3]: 2.3 µM (active)
SMILES: CN(C)C1=C(Cl)C(=O)N(c2cccc([N+](=O)[O-])c2)C1=O

IC50 [4]: > 100 µM (active)
SMILES: CC1Cc2ccccc2N1Cc1cc(=O)n2ccsc2n1 (stereo unspecified)

AC50 [14]: 5.83 µM (active)
SMILES: Cc1ccc(NC(=O)c2noc3c2CCC3)cc1C

AC50 [6]: > 30 µM (inactive)
SMILES: Cc1ccc(C)c(N2CCN(S(=O)(=O)c3ccc4c(c3)CC(=O)N4C)CC2)c1

Further lines, the molecule ahead of its results:

SMILES: CC(=O)N1CCN(c2ccc(NCc3ccc4c(c3)OCO4)cc2)CC1
IC50 [5]: 12.9 µM (active) | IC50 [4]: 16.3 µM (active)

SMILES: CCC(C)N1C(=O)N(C)C2NC(=O)NC21 (stereo unspecified)
AC50 [6]: 2.23 µM (active)

SMILES: COCCn1nnnc1C(c1cc2cc(OC)c(OC)cc2[nH]c1=O)N1CCN(c2ccc(O)cc2)CC1 (stereo unspecified)
IC50 [7]: 6.67 µM (active) | IC50 [8]: > 80 µM (inactive) | IC50 [4]: > 100 µM (active)

SMILES: Cc1ccc(-n2nnc(-c3cccnc3Cl)n2)cc1
IC50 [2]: > 100 µM (not active) | IC50 [9]: 4.03 µM (active) | IC50 [3]: > 100 µM (not active) | IC50 [10]: 3.18 µM (active) | IC50 [11]: > 100 µM (inactive) | IC50 [12]: 9.03 µM (active)

SMILES: O=c1c2ccccc2nc(-c2ccco2)n1CCCn1ccnc1
IC50 [13]: > 31 µM (not active)

SMILES: COC(=O)c1ccccc1NC(=O)COC(=O)CSCC(=O)N1CCOCC1
IC50 [13]: > 93.1 µM (not active)

SMILES: CC(C)c1ccc(OCc2cccc(C(=O)N/N=C/c3cccnc3)c2)cc1
AC50 [15]: 0.98 µM (active) | EC50 [16]: 0.02 µM (active)

SMILES: O=C(C1Cc2ccccc2CN1S(=O)(=O)c1ccc(F)cc1)N1CCOCC1 (stereo unspecified)
AC50 [6]: 23.6 µM (active)
